# Measured values published in patent publication US20250351832A1, “PHYTOCHEMICALS AS BIOPESTICIDES AND BIOSTIMULANTS” (KAY BEE BIO ORGANICS PVT. LTD., priority 2024, published 2025).
# Like-named read-outs stand apart in the source and are kept apart here.
# Columns and labels:
# [1] = system: Alternaria alternata; assay: In vitro poisoned food technique against fungus (Ex. 20); assay type: cell-based
# [2] = system: Alternaria alternata; assay: Alternaria leaf spot/blight on inoculated tomato plants (Ex. 28); assay type: in vivo; settings: tomato plants, Alternaria alternata; after 7 days; dose 1 ml/gm/lit
# [3] = system: tomato seedlings; assay: Response of tomato plants, greenhouse growth (Ex. 30); assay type: in vivo; settings: tomato seedlings, dose 1 ml/gm/lit; for Plant Height 5th Day / Stem Girth 5th Day / CCI 5th Day: 5th day after application; for Plant Height 10th Day / Stem Girth 10th Day / CCI 10th Day: 10th day after application; for Plant Height % Increase over pre on 10th Day / Stem Girth % Increase over pre on 10th Day / CCI % Increase over pre on 10th Day / Root Length (cm) 10th Day / Root Length % Increase over control: 10th day; for Root Length % Increase over control: vs water control
# [4] = system: chili seedlings; assay: Response of chili plants, greenhouse growth (Ex. 31); assay type: in vivo; settings: chili seedlings, dose 1 ml/gm/lit; for CCI 5th Day / Plant Height (cm) 5th Day: 5th day after application; for CCI 10th Day / Plant Height (cm) 10th Day: 10th day after application; for CCI % Increase over pre on 10th Day / Plant Height % Increase over pre on 10th Day / Root Lenght (cm) 10th Day / Stem Girth % Increase over pre on 10th Day / Root Lenght % Increase over control: 10th day; for Root Lenght % Increase over control: vs water control
# [5] = system: Aphid; settings: Dose 1 ml/gm/lit.; for Total No. of dead insect at 48 Hrs.: 10 insects/treatment, 4 replications, cotton leaves
# [6] = system: Mite; settings: Dose 1 ml/gm/lit.; for Total No. of dead insect at 48 Hrs.: 10 insects/treatment, 4 replications, okra leaves
# [7] = system: Mealy Bug; settings: Mealy Bug on cotton leaves, dose 1 ml/gm/lit., 48 Hrs.; for Total No. of dead insect at 48 Hrs.: 10 insects/treatment, 4 replications; for % Corrected Mortality at 48 Hrs.: corrected for water control
# [8] = system: Helicoverpa armigera; settings: Helicoverpa armigera on okra fruits, dose 1 ml/gm/lit., 72 Hrs.; for Total No. of dead insect at 72 Hrs.: 10 insects/treatment, 4 replications; for % Corrected Mortality at 72 Hrs.: corrected for water control
# [9] = system: Spodoptera litura; settings: Spodoptera litura on castor leaves; dose 1 ml/gm/lit.; 10 insects/treatment; 72 hrs after application
# [10] = system: Thrips; settings: Thrips on cotton leaves; dose 1 ml/gm/lit.; 10 insects/treatment; 48 hrs after application
# [11] = system: Aphid; settings: Aphids on cotton plants, green house; dose 1 ml/gm/lit.; 10 insects/plant, 10 plants/treatment; 48 hrs
# [12] = system: Mite; settings: mite on okra plants, green house, dose 1 ml/gm/lit. spray; for % Mortality at 48 Hrs. / Total No. of dead insect at 48 Hrs.: 48 hrs after application; for % Corrected Mortality at 48 Hrs.: corrected for water control
# [13] = system: Mealy Bug; settings: mealy bug on cotton plants, green house, dose 1 ml/gm/lit. spray; for % Mortality at 48 Hrs. / Total No. of dead insect at 48 Hrs.: 48 hrs after application; for % Corrected Mortality at 48 Hrs.: corrected for water control
# [14] = system: Helicoverpa armigera; settings: Helicoverpa armigera 3rd instar on chickpea plants, dose 1 ml/gm/lit. spray; for % Mortality at 72 Hrs.: 72 hrs after application; for % Corrected Mortality at 72 Hrs.: corrected for water control
# [15] = system: Spodoptera litura; settings: Spodoptera litura 3rd instar on cabbage plants, dose 1 ml/gm/lit. spray; for % Mortality at 72 Hrs.: 72 hrs after application; for % Corrected Mortality at 72 Hrs.: corrected for water control
# [16] = system: Thrips; settings: thrips on cotton plants, greenhouse, dose 1 ml/gm/lit. spray; for % Mortality at 48 Hrs. / Total No. of dead insect at 48 Hrs.: 48 hrs after application; for % Corrected Mortality at 48 Hrs.: corrected for water control
# [17] = cited from earlier work; for Phytotonic Effect: Table 13, effect on plants, descriptive
# [18] = system: Spodoptera litura; assay: whole plant or invertebrate; settings: 72 h
# [19] = system: Thrips; assay: whole plant or invertebrate; settings: in Gossypium hirsutum, 48 h
# [20] = system: Aphid; assay: whole plant or invertebrate; settings: 48 h
# [21] = poisoned food technique, PDA medium, dose 1 ml/gm/lit., after seven days
# [22] = Table 13, descriptive, no test described
# [23] = read-out: % Corrected Mortality at 72 Hrs.
# [24] = read-out: % Mortality at 72 Hrs.
# [25] = read-out: % Corrected Mortality at 48 Hrs.
# [26] = read-out: % Mortality at 48 Hrs.
smiles,measurement,setting,value
CCCCCCCCCCCCCCCC(=O)O [Palmitic acid],inhibition of growth at 1 mL or g/L,[1]; […],34.1%
same,Mean colony Diameter (mm),[1]; [21],58.00 mm
same,% Disease reduction over Control,[2],50.41%
same,Plant Height 5th Day,[3],7.14 cm
same,Stem Girth 5th Day,[3],1.79 mm
same,Plant Height 10th Day,[3],8.54 cm
same,Stem Girth 10th Day,[3],2.32 mm
same,Plant Height % Increase over pre on 10th Day,[3],41.16%
same,Stem Girth % Increase over pre on 10th Day,[3],76.92%
same,CCI 5th Day,[3],13.26
same,CCI % Increase over pre on 10th Day,[3],33.42%
same,Root Length (cm) 10th Day,[3],4.95 cm
same,CCI 10th Day,[3],14.89
same,Root Length % Increase over control,[3],48.91%
same,CCI 5th Day,[4],13.04
same,Plant Height (cm) 5th Day,[4],6.30 cm
same,CCI % Increase over pre on 10th Day,[4],56.37%
same,Plant Height % Increase over pre on 10th Day,[4],68.98%
same,Root Lenght (cm) 10th Day,[4],4.41 cm
same,Stem Girth % Increase over pre on 10th Day,[4],58.78%
same,CCI 10th Day,[4],15.95
same,Plant Height (cm) 10th Day,[4],7.3 cm
same,Root Lenght % Increase over control,[4],61.00%
same,Total No. of dead insect at 48 Hrs.,[5],6.00
same,% Corrected Mortality at 48 Hrs.,[5]; 48 hrs,54.29%
same,% Mortality at 48 Hrs.,[5]; 48 hrs,60.00%
same,Total No. of dead insect at 48 Hrs.,[6],4.25
same,% Corrected Mortality at 48 Hrs.,[6],37.84%
same,% Mortality at 48 Hrs.,[6],42.50%
same,Total No. of dead insect at 48 Hrs.,[7],6.50
same,% Mortality at 48 Hrs.,[7],65.00%
same,% Corrected Mortality at 48 Hrs.,[7],63.16%
same,Total No. of dead insect at 72 Hrs.,[8],4.50
same,% Mortality at 72 Hrs.,[8],45.00%
same,% Corrected Mortality at 72 Hrs.,[8],45.00%
same,Total No. of dead insect at 72 Hrs.,[9],2.50
same,Total No. of dead insect at 48 Hrs.,[10],4.25
same,Total No. of dead insect at 48 Hrs.,[11],70.00
same,% Mortality at 48 Hrs.,[12],45.00%
same,Total No. of dead insect at 48 Hrs.,[12],45.00
same,% Corrected Mortality at 48 Hrs.,[12],42.11%
same,% Mortality at 48 Hrs.,[13],55.00%
same,Total No. of dead insect at 48 Hrs.,[13],55.00
same,% Corrected Mortality at 48 Hrs.,[13],50.00%
same,% Mortality at 72 Hrs.,[14],40.00%
same,% Corrected Mortality at 72 Hrs.,[14],40.00%
same,% Mortality at 72 Hrs.,[15],27.50%
same,% Corrected Mortality at 72 Hrs.,[15],23.68%
same,% Mortality at 48 Hrs.,[16],40.00%
same,Total No. of dead insect at 48 Hrs.,[16],40.00
same,% Corrected Mortality at 48 Hrs.,[16],33.33%
same,Acaricidal Activity - Mode of action,[17]; [22],Exhibited potent acaricidal
same,Antifungal Activity - Mode of action,[17]; [22],Strongest antifungal
same,Bactericidal Activity - Mode of action,[17]; [22],Destroyed or disintegrated
same,Nematicidal Activity - Mode of action,[17]; [22],Repelling nematodes
same,Phytotonic Effect,[17],Optimize soil
same,mortality at 1 mL or g/L,[18]; [23],21.1%
same,mortality at 1 mL or g/L,[18]; [24],25%
same,mortality at 1 mL or g/L,[19]; [25],34.3%
same,mortality at 1 mL or g/L,[19]; [26],42.5%
same,mortality at 1 mL or g/L,[20]; [25],64.7%
same,mortality at 1 mL or g/L,[20]; [26],70%
"CCCCCCCCCC(C)=O [Embodiment 2-undecanone, 2-undecanone]",Mean colony Diameter (mm),[1]; [21],52.00 mm
same,inhibition of growth at 1 mL or g/L,"[1]; poisoned food technique, PDA medium, dose 1 ml/gm/lit., after seven days, vs untreated control, read-out: % Inhibition of growth",40.9%
same,% Disease reduction over Control,[2],58.68%
same,Plant Height 5th Day,[3],6.48 cm
same,Stem Girth 5th Day,[3],1.61 mm
same,Plant Height 10th Day,[3],7.56 cm
same,Stem Girth 10th Day,[3],2.40 mm
same,Plant Height % Increase over pre on 10th Day,[3],40.52%
same,Stem Girth % Increase over pre on 10th Day,[3],68.29%
same,CCI 5th Day,[3],13.42
same,CCI % Increase over pre on 10th Day,[3],30.95%
same,Root Length (cm) 10th Day,[3],4.54 cm
same,CCI 10th Day,[3],15.23
same,Root Length % Increase over control,[3],36.48%
same,CCI 5th Day,[4],13.57
same,Plant Height (cm) 5th Day,[4],5.97 cm
same,CCI % Increase over pre on 10th Day,[4],70.42%
same,Plant Height % Increase over pre on 10th Day,[4],68.11%
same,Root Lenght (cm) 10th Day,[4],4.44 cm
same,Stem Girth % Increase over pre on 10th Day,[4],60.61%
same,CCI 10th Day,[4],15.15
same,Plant Height (cm) 10th Day,[4],6.59 cm
same,Root Lenght % Increase over control,[4],62.21%
same,Total No. of dead insect at 48 Hrs.,[5],6.75
same,% Corrected Mortality at 48 Hrs.,[5]; 48 hrs,62.86%
same,Total No. of dead insect at 48 Hrs.,[6],3.00
same,% Corrected Mortality at 48 Hrs.,[6],24.32%
same,% Mortality at 48 Hrs.,[6],30.00%
same,Total No. of dead insect at 48 Hrs.,[7],5.50
same,% Mortality at 48 Hrs.,[7],55.00%
same,% Corrected Mortality at 48 Hrs.,[7],52.63%
same,Total No. of dead insect at 72 Hrs.,[8],5.50
same,% Mortality at 72 Hrs.,[8],55.00%
same,% Corrected Mortality at 72 Hrs.,[8],55.00%
same,Total No. of dead insect at 72 Hrs.,[9],4.00
same,Total No. of dead insect at 48 Hrs.,[10],5.00
same,Total No. of dead insect at 48 Hrs.,[11],67.50
same,% Mortality at 48 Hrs.,[12],27.50%
same,Total No. of dead insect at 48 Hrs.,[12],27.50
same,% Corrected Mortality at 48 Hrs.,[12],23.68%
same,% Mortality at 48 Hrs.,[13],57.50%
same,Total No. of dead insect at 48 Hrs.,[13],57.50
same,% Corrected Mortality at 48 Hrs.,[13],52.78%
same,% Mortality at 72 Hrs.,[14],52.50%
same,% Corrected Mortality at 72 Hrs.,[14],52.50%
same,% Mortality at 72 Hrs.,[15],42.50%
same,% Corrected Mortality at 72 Hrs.,[15],39.47%
same,% Mortality at 48 Hrs.,[16],47.50%
same,Total No. of dead insect at 48 Hrs.,[16],47.50
same,% Corrected Mortality at 48 Hrs.,[16],41.67%
same,Antifungal Activity - Mode of action,[17]; [22],Antifungal and repellent
same,Bactericidal Activity - Mode of action,[17]; [22],Moderate anti-bacterial
same,Insecticidal Activities - Mode of action,[17]; [22],"Insecticidal action,"
same,Phytotonic Effect,[17],Increasing root
same,mortality at 1 mL or g/L,[18]; [23],36.8%
same,mortality at 1 mL or g/L,[18]; [24],40%
same,mortality at 1 mL or g/L,[19]; [25],42.9%
same,mortality at 1 mL or g/L,[19]; [26],50%
same,mortality at 1 mL or g/L,[20]; [25],61.8%
same,mortality at 1 mL or g/L,[20]; [26],67.5%
